Data: patent US20240024488A1, “COMPOUNDS AND USES THEREOF” (Foghorn Therapeutics Inc., priority 2020, published 2024)

How the values were obtained:
[1] = molecular target: T1, HiBit-BRG1 fusion protein (Homo sapiens, UniProt P51532); experiment: HiBiT-BRG1 cell-based degradation assay (Nano-Glo HiBiT Lytic Detection, 24 h); settings: HeLa cell line expressing HiBit-BRG1 and LgBit; for Dmax: read-out: BRG1 HiBit Degradation Maximum (%); for DC50: read-out: BRMG1 HiBit Degradation IC50
T1 construct: expressed in transfected cells
T1 sequence (P51532 whole entry, the tested form may be a part): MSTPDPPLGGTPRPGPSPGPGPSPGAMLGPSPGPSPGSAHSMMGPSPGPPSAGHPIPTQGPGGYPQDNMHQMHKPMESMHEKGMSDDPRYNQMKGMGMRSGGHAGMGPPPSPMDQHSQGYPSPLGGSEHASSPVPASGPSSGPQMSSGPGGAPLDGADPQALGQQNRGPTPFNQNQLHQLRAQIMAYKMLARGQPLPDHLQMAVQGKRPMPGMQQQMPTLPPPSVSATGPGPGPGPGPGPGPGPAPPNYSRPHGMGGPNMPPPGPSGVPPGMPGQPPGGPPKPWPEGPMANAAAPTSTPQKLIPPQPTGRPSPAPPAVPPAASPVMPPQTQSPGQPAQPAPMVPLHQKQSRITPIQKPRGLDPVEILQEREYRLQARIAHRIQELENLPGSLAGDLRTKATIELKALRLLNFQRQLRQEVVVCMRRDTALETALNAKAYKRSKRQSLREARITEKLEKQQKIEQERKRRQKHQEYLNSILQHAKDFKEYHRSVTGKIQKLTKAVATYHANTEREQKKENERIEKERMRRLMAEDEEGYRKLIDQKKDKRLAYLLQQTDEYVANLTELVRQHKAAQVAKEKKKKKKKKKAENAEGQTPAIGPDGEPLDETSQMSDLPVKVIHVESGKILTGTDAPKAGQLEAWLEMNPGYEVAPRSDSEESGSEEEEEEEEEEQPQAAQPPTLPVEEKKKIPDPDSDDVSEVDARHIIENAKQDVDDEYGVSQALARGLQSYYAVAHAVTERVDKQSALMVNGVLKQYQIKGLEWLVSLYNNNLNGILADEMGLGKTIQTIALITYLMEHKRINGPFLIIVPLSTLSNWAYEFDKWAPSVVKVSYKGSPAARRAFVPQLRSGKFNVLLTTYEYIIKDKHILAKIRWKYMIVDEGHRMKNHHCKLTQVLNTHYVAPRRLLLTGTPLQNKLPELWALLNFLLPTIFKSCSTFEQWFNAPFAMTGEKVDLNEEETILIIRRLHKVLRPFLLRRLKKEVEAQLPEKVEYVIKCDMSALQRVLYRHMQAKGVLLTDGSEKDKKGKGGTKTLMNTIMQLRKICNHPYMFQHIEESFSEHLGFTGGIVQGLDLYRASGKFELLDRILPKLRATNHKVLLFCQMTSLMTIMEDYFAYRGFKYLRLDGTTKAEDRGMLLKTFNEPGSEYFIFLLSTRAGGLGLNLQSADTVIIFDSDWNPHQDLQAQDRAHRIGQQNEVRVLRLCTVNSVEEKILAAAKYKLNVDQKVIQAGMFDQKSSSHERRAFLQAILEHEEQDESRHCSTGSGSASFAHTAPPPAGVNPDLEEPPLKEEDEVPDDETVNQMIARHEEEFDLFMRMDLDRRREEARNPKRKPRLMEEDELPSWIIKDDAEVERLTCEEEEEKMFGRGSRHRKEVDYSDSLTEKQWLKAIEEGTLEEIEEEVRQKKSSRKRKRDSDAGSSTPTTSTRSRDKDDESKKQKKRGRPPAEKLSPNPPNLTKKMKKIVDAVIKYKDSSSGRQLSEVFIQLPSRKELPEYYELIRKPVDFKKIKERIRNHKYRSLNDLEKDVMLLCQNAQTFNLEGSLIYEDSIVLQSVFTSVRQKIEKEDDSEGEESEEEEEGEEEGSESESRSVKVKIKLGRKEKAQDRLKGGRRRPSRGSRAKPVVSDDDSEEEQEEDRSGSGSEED
Protocol: Procedure: A stable HeLa cell line expressing HiBiT-BRM was generated. On day 0, 5000 cells were seeded in 40 μL of media into each well of 384-well cell culture plates. […] Subsequently plates were incubated for 24 h in a standard tissue culture incubator and equilibrated at room temperature for 15 minutes. Nano-Glo HiBiT Lytic Detection System (Promega N3050) reagent was freshly prepared and 20 ul was added to each well. Upon addition of this LgBit-containing reagent, the HiBiT and LgBiT proteins associate to form the luminescent NanoBiT luciferase. The plates were shaken for 10 minutes at room temperature and the bioluminescence read using an EnVision plate reader (PerkinElmer).
For measurement of BRG1 degradation, a stable HeLa cell line expressing HiBit-BRG1 and LgBit was generated. The same protocol as above was then followed.
(§1) The degradation % was calculated using the following formula: % degradation=100%−100%×(LumSample−LumLC)/(LumHC−LumLC). DMSO treated cells are employed as High Control (HC) and 2 μM of a known BRM/BRG1 degrader standard treated cells are employed as Low Control (LC).

HiBit-BRM fusion protein = molecular target: T2, HiBit-BRM fusion protein (Homo sapiens, UniProt P51531); experiment: HiBiT-BRM cell-based degradation assay (Nano-Glo HiBiT Lytic Detection, 24 h); settings: HeLa cell line expressing HiBiT-BRM; for DC50: read-out: BRM HiBit Degradation IC50
T2 construct: expressed in transfected cells
T2 sequence (P51531 whole entry, the tested form may be a part): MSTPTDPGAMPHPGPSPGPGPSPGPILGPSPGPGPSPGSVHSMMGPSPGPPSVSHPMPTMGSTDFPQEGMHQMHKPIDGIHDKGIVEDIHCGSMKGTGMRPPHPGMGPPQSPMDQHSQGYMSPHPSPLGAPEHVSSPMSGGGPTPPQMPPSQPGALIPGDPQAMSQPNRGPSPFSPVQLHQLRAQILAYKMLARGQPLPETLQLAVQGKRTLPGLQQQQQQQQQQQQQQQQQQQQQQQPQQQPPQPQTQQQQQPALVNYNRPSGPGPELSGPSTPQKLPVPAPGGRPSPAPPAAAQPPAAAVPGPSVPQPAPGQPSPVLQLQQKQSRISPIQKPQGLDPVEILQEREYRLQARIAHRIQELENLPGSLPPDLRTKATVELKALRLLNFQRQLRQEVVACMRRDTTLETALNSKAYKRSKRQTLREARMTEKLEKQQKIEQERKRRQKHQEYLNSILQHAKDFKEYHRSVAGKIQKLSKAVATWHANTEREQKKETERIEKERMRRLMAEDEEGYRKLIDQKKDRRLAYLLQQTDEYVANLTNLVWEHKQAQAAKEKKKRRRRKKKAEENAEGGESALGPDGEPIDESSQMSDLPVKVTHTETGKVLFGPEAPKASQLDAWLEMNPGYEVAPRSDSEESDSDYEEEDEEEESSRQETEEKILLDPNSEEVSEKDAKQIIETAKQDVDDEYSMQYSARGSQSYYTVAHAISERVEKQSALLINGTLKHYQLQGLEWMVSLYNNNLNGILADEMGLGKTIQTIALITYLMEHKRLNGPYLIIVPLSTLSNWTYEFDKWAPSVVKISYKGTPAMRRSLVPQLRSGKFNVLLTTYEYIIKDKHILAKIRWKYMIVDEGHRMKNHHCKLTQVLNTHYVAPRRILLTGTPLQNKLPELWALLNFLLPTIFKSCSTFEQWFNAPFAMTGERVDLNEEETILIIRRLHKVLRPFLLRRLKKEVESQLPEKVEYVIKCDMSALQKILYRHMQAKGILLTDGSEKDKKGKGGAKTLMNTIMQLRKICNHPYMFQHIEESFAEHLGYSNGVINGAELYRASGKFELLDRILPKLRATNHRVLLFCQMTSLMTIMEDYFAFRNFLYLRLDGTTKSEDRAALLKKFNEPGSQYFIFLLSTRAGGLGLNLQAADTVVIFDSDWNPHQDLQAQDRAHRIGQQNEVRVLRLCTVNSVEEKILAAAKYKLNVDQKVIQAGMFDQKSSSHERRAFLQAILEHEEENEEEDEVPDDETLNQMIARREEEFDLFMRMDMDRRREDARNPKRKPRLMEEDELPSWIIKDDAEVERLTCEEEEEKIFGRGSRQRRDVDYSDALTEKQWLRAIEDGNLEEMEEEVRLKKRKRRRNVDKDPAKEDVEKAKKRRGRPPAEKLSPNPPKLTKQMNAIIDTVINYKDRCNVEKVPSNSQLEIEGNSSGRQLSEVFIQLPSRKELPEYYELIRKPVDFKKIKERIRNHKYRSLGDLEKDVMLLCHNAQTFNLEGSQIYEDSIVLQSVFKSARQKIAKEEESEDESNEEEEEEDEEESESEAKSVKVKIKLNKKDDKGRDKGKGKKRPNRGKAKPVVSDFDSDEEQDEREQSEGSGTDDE
Protocol: Procedure: A stable HeLa cell line expressing HiBiT-BRM was generated. On day 0, 5000 cells were seeded in 40 μL of media into each well of 384-well cell culture plates. On day 1, cells were treated with 120 nL DMSO or 120 nL of 3-fold serially DMSO-diluted compounds (10 points in duplicate with 30 μM as final top dose). Subsequently plates were incubated for 24 h in a standard tissue culture incubator and equilibrated at room temperature for 15 minutes. Nano-Glo HiBiT Lytic Detection System (Promega N3050) reagent was freshly prepared and 20 ul was added to each well. Upon addition of this LgBit-containing reagent, the HiBiT and LgBiT proteins associate to form the luminescent NanoBiT luciferase. The plates were shaken for 10 minutes at room temperature and the bioluminescence read using an EnVision plate reader (PerkinElmer).
as §1

Compound	Dmax [1] [%]	DC50 [1] [nM]	DC50 (HiBit-BRM fusion protein) [nM]	BRM HiBit Degradation Maximum (%) (HiBit-BRM fusion protein)
Cc1ncsc1-c1ccc([C@H](C)NC(=O)[C@@H]2C[C@@H](O)CN2C(=O)[C@@H](c2cc(OCCNC(=O)[C@H]3C[C@@]4(Cc5cc(-c6ccccc6O)nnc5N4)C3)no2)C(C)C)cc1 (racemic) [Compound 70, (1R,3s)-N-(2-((5-((R)-1-((2S,4R)-4-hydroxy-2-(((S)-1-(4-(4-methylthiazol-5-yl)phenyl)ethyl)carbamoyl)pyrrolidin-1-yl)-3-methyl-1-oxobutan-2-yl)isoxazol-3-yl)oxy)ethyl)-3′-(2-hydroxyphenyl)-5′,7′-dihydrospiro[cyclobutane-1,6′-pyrrolo[2,3-c]pyridazine]-3-carboxamide]	< 50		> 100	B (“B” indicates maximum degradation ≥ 50%)
Cc1ncsc1-c1ccc([C@H](C)NC(=O)[C@@H]2C[C@@H](O)CN2C(=O)[C@@H](c2cc(OCCNC(=O)[C@H]3C[C@]4(Cc5cc(-c6ccccc6O)nnc5N4)C3)no2)C(C)C)cc1 (racemic) [Compound 71, (1S,3r)-N-(2-((5-((R)-1-((2S,4R)-4-hydroxy-2-(((S)-1-(4-(4-methylthiazol-5-yl)phenyl)ethyl)carbamoyl)pyrrolidin-1-yl)-3-methyl-1-oxobutan-2-yl)isoxazol-3-yl)oxy)ethyl)-3′-(2-hydroxyphenyl)-5′,7′-dihydrospiro[cyclobutane-1,6′-pyrrolo[2,3-c]pyridazine]-3-carboxamide]	< 50		> 100	A (“A” indicates maximum degradation ≥ 75%)
Cc1ncsc1-c1ccc([C@H](C)NC(=O)[C@@H]2C[C@@H](O)CN2C(=O)[C@@H](c2cc(N3C[C@@H]4C[C@H]3CN4C(=O)[C@H]3C[C@@]4(Cc5cc(-c6ccccc6O)nnc5N4)C3)no2)C(C)C)cc1 (racemic) [Compound 72, (2S,4R)-4-hydroxy-1-((R)-2-(3-((1S,4S)-5-((1S,3s)-3′-(2-hydroxyphenyl)-5′,7′-dihydrospiro[cyclobutane-1,6′-pyrrolo[2,3-c]pyridazine]-3-carbonyl)-2,5-diazabicyclo[2.2.1]heptan-2-yl)isoxazol-5-yl)-3-methylbutanoyl)-N-((S)-1-(4-(4-methylthiazol-5-yl)phenyl)ethyl)pyrrolidine-2-carboxamide]	< 50		> 1000	B (“B” indicates maximum degradation ≥ 50%)
Cc1ncsc1-c1ccc([C@H](C)NC(=O)[C@@H]2C[C@@H](O)CN2C(=O)[C@@H](c2cc(N3CCC(C(=O)NC(=N)N4CCc5[nH]c6nnc(-c7ccccc7O)cc6c5C4)CC3)no2)C(C)C)cc1 (racemic) [Compound 74, 1-{5-[(2R)-1-[(2S,4R)-4-hydroxy-2-{[(1S)-1-[4-(4-methyl-1,3-thiazol-5-yl)phenyl]ethyl]carbamoyl}pyrrolidin-1-yl]-3-methyl-1-oxobutan-2-yl]-1,2-oxazol-3-yl}-N-[12-(2-hydroxyphenyl)-4,8,10,11-tetraazatricyclo[7.4.0.0^{2,7}]trideca-1(13),2(7),9,11-tetraene-4-carboximidoyl]piperidine-4-carboxamide]	< 50		> 10	A (“A” indicates maximum degradation ≥ 75%)
Cc1ncsc1-c1ccc([C@H](C)NC(=O)[C@@H]2C[C@@H](O)CN2C(=O)[C@@H](c2cc(C3CCN(C(=O)[C@H]4C[C@]5(Cc6cc(-c7ccccc7O)nnc6N5)C4)CC3)no2)C(C)C)cc1 (racemic) [Compound 75, (2S,4R)-4-hydroxy-1-((R)-2-(3-(1-((1S,3r)-3′-(2-hydroxyphenyl)-5′,7′-dihydrospiro[cyclobutane-1,6′-pyrrolo[2,3-c]pyridazine]-3-carbonyl)piperidin-4-yl)isoxazol-5-yl)-3-methylbutanoyl)-N-((S)-1-(4-(4-methylthiazol-5-yl)phenyl)ethyl)pyrrolidine-2-carboxamide]	> 50	> 100	> 10	A (“A” indicates maximum degradation ≥ 75%)
Cc1ncsc1-c1ccc([C@H](C)NC(=O)[C@@H]2C[C@@H](O)CN2C(=O)[C@@H](c2cc(N3C[C@H]4C[C@@H]3CN4C(=O)[C@H]3C[C@]4(Cc5cc(-c6ccccc6O)nnc5N4)C3)no2)C(C)C)cc1 (racemic) [Compound 76, (2S,4R)-4-hydroxy-1-((R)-2-(3-((1R,4R)-5-((1S,3r)-3′-(2-hydroxyphenyl)-5′,7′-dihydrospiro[cyclobutane-1,6′-pyrrolo[2,3-c]pyridazine]-3-carbonyl)-2,5-diazabicyclo[2.2.1]heptan-2-yl)isoxazol-5-yl)-3-methylbutanoyl)-N-((S)-1-(4-(4-methylthiazol-5-yl)phenyl)ethyl)pyrrolidine-2-carboxamide]	< 50		> 100	A (“A” indicates maximum degradation ≥ 75%)

The next lines start with results.

Dmax [1] [%]	DC50 [1] [nM]	DC50 (HiBit-BRM fusion protein) [nM]	Compound	BRM HiBit Degradation Maximum (%) (HiBit-BRM fusion protein)
> 75	> 10	< 10	Cc1ncsc1-c1ccc([C@H](C)NC(=O)[C@@H]2C[C@@H](O)CN2C(=O)[C@@H](c2cc([C@H]3CC[C@H](c4cnc(N5CCC(c6c[nH]c7nnc(-c8ccccc8O)cc67)CC5)nc4)CC3)no2)C(C)C)cc1 (racemic) [Compound 67, (2S,4R)-4-hydroxy-N-[(1S)-1-[4-(4-methyl-1,3-thiazol-5-yl)phenyl]ethyl]-1-[(2R)-3-methyl-2-{3-[(1r,4r)-4-(2-{4-[3-(2-hydroxyphenyl)-7H-pyrrolo[2,3-c]pyridazin-5-yl]piperidin-1-yl}pyrimidin-5-yl)cyclohexyl]-1,2-oxazol-5-yl}butanoyl]pyrrolidine-2-carboxamide]	A (“A” indicates maximum degradation ≥ 75%)
< 50		> 10	Cc1ncsc1-c1ccc([C@H](C)NC(=O)[C@@H]2C[C@@H](O)CN2C(=O)[C@@H](c2cc([C@H]3CC[C@@H](c4cnc(N5CCC(c6c[nH]c7nnc(-c8ccccc8O)cc67)CC5)nc4)CC3)no2)C(C)C)cc1 (racemic) [Compound 68, (2S,4R)-4-hydroxy-N-[(1S)-1-[4-(4-methyl-1,3-thiazol-5-yl)phenyl]ethyl]-1-[(2R)-3-methyl-2-{3-[(1s,4s)-4-(2-{4-[3-(2-hydroxyphenyl)-7H-pyrrolo[2,3-c]pyridazin-5-yl]piperidin-1-yl}pyrimidin-5-yl)cyclohexyl]-1,2-oxazol-5-yl}butanoyl]pyrrolidine-2-carboxamide]	A (“A” indicates maximum degradation ≥ 75%)
< 50		> 10	Cc1ncsc1-c1ccc([C@H](C)NC(=O)[C@@H]2C[C@@H](O)CN2C(=O)[C@@H](c2cc(C3CCN(C(=O)[C@H]4C[C@@]5(Cc6cc(-c7ccccc7O)nnc6N5)C4)CC3)no2)C(C)C)cc1 (racemic) [Compound 69, (2S,4R)-4-hydroxy-1-((R)-2-(3-(1-((1R,3s)-3′-(2-hydroxyphenyl)-5′,7′-dihydrospiro[cyclobutane-1,6′-pyrrolo[2,3-c]pyridazine]-3-carbonyl)piperidin-4-yl)isoxazol-5-yl)-3-methylbutanoyl)-N-((S)-1-(4-(4-methylthiazol-5-yl)phenyl)ethyl)pyrrolidine-2-carboxamide]	A (“A” indicates maximum degradation ≥ 75%)
